Measurements taken from patent US5196292A, “Nucleated high contrast photographic elements containing ballasted thioether isothioureas to inhibit pepper fog and restrain image spread” (priority 1991, dated 1993).

Key:
[1] = image spread: halftone dot growth rate during development; settings: for Dot Growth Rate: Table II, 0.5 mmol/Ag mol, control 0.63 microns/sec; for reduction of dot growth rate (in words): from Table II, versus control, silver chlorobromide emulsion
Method: (§1) Each coating used in obtaining the data provided in these examples was prepared on a polyester support, using a monodispersed 0.23 micrometer cubic, rhodium-doped, sulfur plus gold sensitized AgClBr(70/30) emulsion at 3.24 g/m^2 Ag, 2.35 g gel/m^2 and 1.00 g latex/m^2, where the latex is a copolymer of methyl acrylate, 2-acrylamido-2-methylpropane sulfonic acid and 2-acetoacetoxyethylmethacrylate. Sulfur and gold sensitization was provided by addition of 1.5 mg/Ag mole of 1,3-dicarboxymethyl-1,3-dimethyl-2-thiourea and 1.1 mg/Ag mole of potassium tetrachloroaurate. The silver halide emulsion also contained, in amounts of 50, 400, and 200 mg/Ag mole, respectively, the antifoggants 1-(3-acetamidophenyl)-5-mercaptotetrazole, 5-carboxy-4-hydroxy-6-methyl-2-methyl-mercapto1,3,3a,7-tetra-azaindene and 5-bromo-4-hydroxy-6-methyl-1,3,3a,7-tetraazaindene. The emulsion was spectr sensitized at 208 mg/Ag mol with a sensitizing dye of the formula: [drawing 17] and the emulsion layer was overcoated with gelatin containing polymethylmethacrylate beads. The nucleating agent was added as a methanol solution to the emulsion melts at a level of 0.2 millimoles (mM) per mole of silver. The compound employed as the nucleating agent is represented by the formula: [drawing 18]
(§2) An "incorporated booster" was added as a methanol solution in an amount of 2 g/Ag mol. The compound employed as the "incorporated booster" is represented by the formula: [drawing 19] where Pr represents n-propyl
(§3) Ballasted thioether isothioureas I to VII were incorporated n the emulsion at 0.5 mmol/Ag mol as methanol solutions. Coatings were exposed through a 0.1 Log E step tablet for five seconds to a 3000° K. tungsten light source and processed for 30 seconds at 30° C. in the developer solution. Processing was carried out in a KODAK KODAMATIC Model 42S processor.
Each of the coatings was also analyzed for the effect upon image spread of the incorporation of the isothiourea compound.
Image spread measurements were performed by following the growth in diameter of halftone dots with development time. The films were contact exposed to a 52 line/cm 90% tint to produce a 10% exposed dot pattern. The films were then developed in a device that measures the infrared (IR) density during development. The integrated IR halftone density of the developing tint pattern was converted to the equivalent dot diameter using the relation between integrated density and percent dot area. The resulting plots of increasing dot diameter with development time were linear (constant dot growth rate) during the first 60 to 90 seconds of development.

[2] = pepper fog spot count by electronic image analyzer, change versus control; settings: for Delta Log PF (pepper fog): Table I, 0.5 mmol/Ag mol, spots >10 micrometer diameter in 600 square millimeters, -0.3 = two times reduction; for reduction in pepper fog (in words): from Table I, versus control
Method: as §1, §2, §3
(§4) The concentrate was diluted at a ratio of one part of concentrate to three parts of water to produce a working strength developing solution with a pH of 10.5.
(§5) An electronic image analyzer was used to scan processed unexposed samples and count the number of pepper fog spots (>10 micrometer diameter) contained in an area of 600 square millimeters. Standard sensitometry exposures were processed and analyzed to monitor speed and shoulder density effects.
(§6) Sensitometry parameters are expressed in Table I in terms of the change produced by incorporation of the ballasted thioether isothiourea versus the control which contained no isothiourea compound and was processed under identical conditions. Values are reported for speed, practical density point (PDP, a measure of shoulder development) and pepper fog (PF). Therefore, the changes in speed, practical density point and pepper fog produced by the ballasted thioether isothiourea are directly recorded in the table. By definition, the delta log speed, delta PDP and delta log PF for the control are zero.
(§7) In each of examples 1 to 7, the ballasted thioether isothiourea was employed in the form of the hydrochloride salt. Comparative test A utilized the hydrobromide salt of isothiourea compound "A" of the formula: [drawing 20] Comparative test B utilized the hydrobromide salt of isothiourea compound "B" of the formula: [drawing 21] Both compounds A and B were utilized at a concentration of 0.5 mmol/Ag mol.

[3] = sensitometry: change in speed and practical density point versus control; settings: Table I; for Delta Log Speed: 0.5 mmol/Ag mol isothiourea, change versus control without isothiourea; for Delta PDP (practical density point): 0.5 mmol/Ag mol, density at 0.4 log E past speed point, Test PDP - Control PDP
Method: as §1, §2, §3, §4, §5, §6, §7

Row | Compound | Dot Growth Rate [1] [microns/sec] | Delta Log PF (pepper fog) [2] | Delta Log Speed [3] | Delta PDP (practical density point) [3] | reduction of dot growth rate (in words) [1] | reduction in pepper fog (in words) [2]
1 | CCCCSCCSC(=N)N [V] | 0.57 | -0.33 | -0.01 | -0.38 | – | –
2 | CCCCCCCCSC(=N)N [Compound A, reference compound] | 0.62 | -0.12 | -0.02 | -0.22 | ineffective in reducing dot growth rate | also reduced pepper fog, but to a much lesser extent
3 | CCCCCCCCCCSCCSC(=N)N [II] | 0.58 | -0.46 | -0.03 | -0.14 | – | –
4 | CCCCCCSCCCSC(=N)N [III] | 0.54 | -0.58 | -0.02 | -0.36 | – | –
5 | N=C(N)SCCSCc1ccccc1 [VII] | 0.54 | -0.86 | -0.03 | -0.42 | – | reducing pepper fog by a factor of almost ten times
6 | CCCCCCCCCCSCCCSC(=N)N [IV] | 0.58 | -0.43 | -0.01 | -0.39 | – | –
7 | CCCCCCCCCCCCSC(=N)N [B, reference compound] | 0.62 | -0.07 | -0.02 | -0.34 | ineffective in reducing dot growth rate | also reduced pepper fog, but to a much lesser extent
8 | N=C(N)SCCSc1ccccc1 [VI] | 0.60 | -0.48 | -0.01 | -0.19 | – | –
9 | CCCCCCSCCSC(=N)N [I] | 0.55 | -0.14 | -0.01 | -0.06 | – | –
